Experimental data taken from paper PMC5037830 (2016).

Columns and labels:
[1] = tested on: dsDNA (ds-oligonucleotide, oligonucleotides 1 and 2) (DNA, duplex) AAATTAATATGTATTGTATATAAATTATT/AATAATTTATATACAATACATATTAATTT; assay: UV melting (260 nm); conditions: 0.1 M NaCl, 0.01 M MgCl2
[2] = tested on: dsDNA (ds-oligonucleotide, oligonucleotides 1 and 2) (DNA, duplex) AAATTAATATGTATTGTATATAAATTATT/AATAATTTATATACAATACATATTAATTT; assay: circular dichroism; conditions: Na+ (TBS); TBS pH 7.4, 1 mM EDTA, 37 °C; 2.5 µM compound, 2.5 µM duplex

## CN(CCCNC(=O)c1cnc2ccccc2c1N)CCCNC(=O)c1cnc2ccccc2c1N
[1]; derived from two Tm (64.5 ± 0.71, control 64.97 ± 0.20), 15 µM, change called negligible
  ΔTm: -0.47 °C

## CN(CCCNC=C1C(=O)Oc2ccccc2C1=O)CCCNC=C1C(=O)Oc2ccccc2C1=O
[1]; derived from two Tm (64.07 ± 0.14, control 64.97 ± 0.20), 15 µM, change called negligible
  ΔTm: -0.90 °C

## Nc1c(C(=O)NCCCN2CCN(CCCNC(=O)c3cnc4ccccc4c3N)CC2)cnc2ccccc12
[2]
  binding: yes
[1]; derived from two Tm (70.7 ± 0.71, control 64.97 ± 0.20), text says 7, 15 µM, 0.1% DMSO
  ΔTm: 5.73 °C

## Nc1c2ccccc2nc2ccccc12
[1]; derived from two Tm (78.00 ± 0.00, control 64.97 ± 0.20), 100 µM
  ΔTm: 13.03 °C

## O=C1Oc2ccccc2C(=O)C1=CNCCCN1CCN(CCCNC=C2C(=O)Oc3ccccc3C2=O)CC1
[1]; derived from two Tm (64.02 ± 0.00, control 64.97 ± 0.20), 15 µM, change called negligible
  ΔTm: -0.95 °C
